Results on seven molecules are retold here after US10654889B2, “Peptide having anticancer activity, and pharmaceutical composition, health functional food composition and functional cosmetic composition for preventing and treating cancer comprising the same as active ingredient” (INDUSTRY-UNIVERSITY COOPERATION FOUNDATION HANYANG …, priority 2016, dated 2020).

The test system of one assay is cancer cells. As to conditions: cell and mouse xenograft models; Grant et al. 2012; cited from earlier work.
Assay [1] relates to breast cancer cell line (MDA-MB-231). The assay can be described thus: Cell growth inhibition and apoptosis induction, breast cancer cell line. As to conditions: for growth inhibition and apoptosis-inducing effects: 0.05-10 μM, 0-96 hours; for growth inhibition and apoptosis-inducing effects (cell images, MTT assay, FIG. 6): compared to the untreated control, 48 hours images, 96 hours MTT. Type of assay: cell-based. The protocol:
(§1) An embryonic kidney cell line (293T), a breast cancer cell line (MDA-MB-231), and colon cancer cell lines (HCT116 and HT29) were inoculated in a 96-well plate at a density of 3,000 cells/well, and 50 μL of a culture fluid was added thereto. The resulting mixture was cultured for an hour under 37° C./5% CO2 conditions. Each of the peptides prepared in Example 3 was added at an increasing concentration of 0.05, 1, 2, 3 and 10 μM to the well plate inoculated with each of the cell lines, and the resulting mixture was cultured for 0, 24, 48, 72 and 96 hours under 37° C./5% CO2 conditions. When the culture was completed, the cells were observed and their morphological changes were imaged using an inverted phase contrast microscope.

The test system of assay [2] is embryonic kidney cell line (293T). The assay can be described thus: Cell growth inhibition and apoptosis induction, embryonic kidney cell line. Type of assay: cell-based. Conditions: for growth inhibition and apoptosis-inducing effects: 0.05-10 μM, 0-96 hours; for growth inhibition and apoptosis-inducing effects (cell images, MTT assay, FIG. 6): compared to the untreated control, 48 hours images, 96 hours MTT. How it is done:
as §1

Assay [3] has as its system colon cancer cell line HCT116. The assay can be described thus: Cell growth inhibition and apoptosis induction, colon cancer cell line HCT116. Type of assay: cell-based. As to conditions: for growth inhibition and apoptosis-inducing effects: 0.05-10 μM, 0-96 hours; for growth inhibition and apoptosis-inducing effects (cell images, MTT assay, FIG. 6): compared to the untreated control, 48 hours images, 96 hours MTT. The protocol:
as §1

Assay [4] has as its system colon cancer cell line HT29. Description: Cell growth inhibition and apoptosis induction, colon cancer cell line HT29. Format: cell-based. Conditions: for growth inhibition and apoptosis-inducing effects: 0.05-10 μM, 0-96 hours; for growth inhibition and apoptosis-inducing effects (cell images, MTT assay, FIG. 6): compared to the untreated control, 48 hours images, 96 hours MTT. How it is done:
as §1
For orientation: Tetrazolium assays rely on reduction of a dye to a coloured formazan, in cell work by metabolically active cells.

The subject of assay [5] is liver cancer cell line (Hep3B). Description: Cell growth inhibition and apoptosis, liver cancer cell line (MTT, CCK, Crystal Violet). Format: cell-based. Conditions: Hep3B treated once with peptide; compared to 5-2C-treated group. The text has this:
The peptides were used to analyze effects on cell growth inhibition and apoptosis in the liver cancer cell line (Hep3B). FIGS. […] 8C and 8D graphically show the growth inhibition and apoptosis-inducing effects of the respective peptides at different concentrations. […] Therefore, it can be seen that the peptide of SEQ ID NO: 1 according to the present invention is a peptide having a sequence composed of an optimized number of amino acids to have anticancer activity.

The next assay deals with leukemia cells. Description: Growth inhibition and apoptosis in leukemia cells. Format: cell-based. As to conditions: compared with Peptide 5-2C.
The test system of the next assay is breast cancer cells. The assay can be described thus: Growth inhibition and apoptosis in breast cancer cells. Type of assay: cell-based. Conditions: compared with Peptide 5-2C.
The test system of the next assay is colon cancer cells. The assay can be described thus: Growth inhibition and apoptosis in colon cancer cells. Conditions: compared with Peptide 5-2C. Format: cell-based.
Another assay concerns liver cancer cells. Description: Growth inhibition and apoptosis in liver cancer cells. Format: cell-based. Conditions: compared with Peptide 5-2C.
The test system of the next assay is kidney-derived cells. Description: Growth inhibition and apoptosis in kidney-derived cells. Type of assay: cell-based. Conditions: compared with Peptide 5-2C.
For a further assay, the system named is various cells. The assay can be described thus: IC50 in various cells (MTT, FIG. 16). Type of assay: cell-based. As to conditions: compared with Peptide 5-2C.

Turning to `CCOc1ccccc1C1CC(=O)Nc2cc3c(cc21)OCO3` (centres unmarked) [FQI1, Factor Quinolinone Inhibitor 1], the “inhibition of cancer cells versus normal cells” value in the assay with cancer cells is given as “successful in inhibiting only the cancer cells without exerting any influence on normal cells”.

“Ac-NYPQRcrgdkgpdc-amide [Peptide 5-2-51C]”: the “growth inhibition and apoptosis-inducing effects” value was “exhibited growth inhibition and apoptosis-inducing effects” in assay [1]; “exhibited growth inhibition and apoptosis-inducing effects” in [2]; “exhibited growth inhibition and apoptosis-inducing effects” in assay [3]; “exhibited growth inhibition and apoptosis-inducing effects” in [4]. Also, the “growth inhibition and apoptosis-inducing effects (cell images, MTT assay, FIG. 6)” value is “superior growth inhibition and apoptosis-inducing effects” in assay [1]; “superior growth inhibition and apoptosis-inducing effects” in [2]; “superior growth inhibition and apoptosis-inducing effects” in assay [3]; “superior growth inhibition and apoptosis-inducing effects” in [4].

In the case of Ac-PQRcrgdkgpdc-amide [Peptide 5-2-32C], in assay [1], the “growth inhibition and apoptosis-inducing effects” value is “no growth inhibition and apoptosis-inducing effects at all”.

On to “Ac-YPQRPcrgdkgpdc-amide [Peptide 5-2-52C]”, for which the “growth inhibition and apoptosis-inducing effects” value was “exhibited growth inhibition and apoptosis-inducing effects” in assay [1]; “exhibited growth inhibition and apoptosis-inducing effects” in assay [2]; “exhibited growth inhibition and apoptosis-inducing effects” in assay [3]; “exhibited growth inhibition and apoptosis-inducing effects” in assay [4]. The “growth inhibition and apoptosis-inducing effects (cell images, MTT assay, FIG. 6)” value in assay [1] was “superior growth inhibition and apoptosis-inducing effects”; in assay [2], “superior growth inhibition and apoptosis-inducing effects”; in assay [3], “superior growth inhibition and apoptosis-inducing effects”; in assay [4], “superior growth inhibition and apoptosis-inducing effects”.

Regarding Ac-YPQRcrgdkgpdc-amide [Peptide 5-2-4C], the “growth inhibition and apoptosis-inducing effects” value is “exhibited growth inhibition and apoptosis-inducing effects” in assay [1]; “exhibited growth inhibition and apoptosis-inducing effects” in assay [2]; “exhibited growth inhibition and apoptosis-inducing effects” in [3]; “exhibited growth inhibition and apoptosis-inducing effects” in [4]. The “growth inhibition and apoptosis-inducing effects (cell images, MTT assay, FIG. 6)” value in assay [1] was “superior growth inhibition and apoptosis-inducing effects”; in [2], “superior growth inhibition and apoptosis-inducing effects”; in [3], “superior growth inhibition and apoptosis-inducing effects”; in [4], “superior growth inhibition and apoptosis-inducing effects”. In addition, in assay [5], the “change in IC50 values observed for 3 days” value is recorded as “steadily decreasing over 3 days, a level of which was highly similar to that of Peptide 5-2C”. Also, the “growth inhibition and apoptosis” value with leukemia cells, in the assay on breast cancer cells, with colon cancer cells, with liver cancer cells and in the assay with kidney-derived cells was “a tendency very similar to Peptide 5-2C” in each case. In addition, in the assay on various cells, the “IC50 value at 48 hours” value is given as “very similar to that of Peptide 5-2C”.

As for Ac-YPQcrgdkgpdc-amide [Peptide 5-2-31C], the “growth inhibition and apoptosis-inducing effects” value in assay [1] was “no growth inhibition and apoptosis-inducing effects at all”.

Consider CRGDKGPDC [iRGD, reference compound], for which the “growth inhibition and apoptosis-inducing effects” value in assay [1] is “no growth inhibition and apoptosis-inducing effects at all”.
